This is an account of results in patent publication US6268380A, “Urea derivatives useful as platelet aggregation inhibitors” (G. D. Searle & Co., priority 1993, dated 2001).

By IC50 is commonly meant the concentration needed to halve the response being measured.

Experiment [1] relates to platelet aggregation in Dog PRP. Nature of the experiment: In-Vitro Platelet Aggregation in PRP (ADP induced). In kind it is cell-based. Particulars: Canis lupus familiaris, ADP 50 um final concentration. As for the experimental part:
Healthy male or female dogs were fasted for 8 hours prior to drawing blood; then 30 ml whole blood was collected using a butterfly needle and 30 cc plastic syringe with 3 ml of 0.129 M buffered sodium citrate (3.8%). The syringe was rotated carefully as blood was drawn to mix the citrate. Platelet-rich plasma (PRP) was prepared by centrifugation at 975×g for 3.17 minutes at room temperature allowing the centrifuge to coast to a stop without braking. The PRP was removed from the blood with a plastic pipette and placed in a plastic capped, 50 mL Corning conical sterile centrifuge tube which was held at room temperature. Platelet poor plasma (PPP) was prepared by centrifuging the remaining blood at 2000×g for 15 minutes at room temperature allowing the centrifuge to coast to a stop without braking. The PRP was adjusted with PPP to a count of 2-3×10^8 platelets per mL. 400 uL of the PRP preparation and 50 uL of the compounds solution to be tested or saline were preincubated for 1 minute at 37° C. in a […].). 50 uL of adenosine 5' diphosphate (ADP) (50 um final concentration) was added to the cuvettes and the aggregation was monitored for 1 minute. All compounds are tested in duplicate. Results are calculated as follows: Percent of control=[(maximal OD minus initial OD of compound) divided by (maximal OD minus initial OD of control saline)]×100. The % inhibition=100-(percent of control).
The compounds tested and their median inhibitory concentrations (IC50) are recorded in Table I. IC50 's (dosage at which 50% of platelet aggregation is inhibited) were calculated by linear regression of the dose response curve.

For experiment [2], the system named is ex vivo collagen induced platelet aggregation. Nature of the experiment: Inhibition of ex vivo collagen induced aggregation (compound administered to dogs). The arrangement: species or system dog (Beagles); key: *: not active at the dose tested. As to conditions: intragastric (IG) administration to dogs; collagen induced aggregation in PRP ex vivo; dose not given. The protocol: The purpose of this assay is to determine the effects of antiplatelet compounds on ex vivo collagen induced platelet aggregation when administered either intravenously or orally to dogs.
Pretreatment (control) blood samples are drawn from either conscious or anesthetized dogs (Beagles) and centrifuged to prepare platelet rich plasma (PRP). Aggregatory response to collagen is measured in a aggregometer and used as Control. Compounds are administered, either intragasterically (either by capsule or stomach tube or intravenously). Blood samples are drawn at predetermined intervals after compound administration, PRP prepared and aggregation to collagen determined. Compound inhibition of aggregation is determined by comparing the aggregation response after compound administration to the pretreatment response.

For `N=C(N)c1ccc(NC(=O)N2CCCC(C(=O)NC(CC(=O)O)c3cccnc3)C2)cc1` (stereo not drawn) [Example 2, β-[[N-3-[[[4-(aminoiminomethyl)phenyl]amino]carbonyl]piperidylcarbonyl]amino]-3-pyridinepropanoic acid], in experiment [1] (1 min, 37° C., aggregation monitored 1 minute), it took 850 nM to reach half-maximal inhibition (IC50). The “Ex Vivo Effect after IG Administration” value in experiment [2] is “*”. Take `N=C(N)c1ccc(NC(=O)N2CCCC2C(=O)NC(CC(=O)O)c2cccnc2)cc1` (stereo not drawn) [Example 4, β-[[N-2-[[[4-(aminoiminomethyl)phenyl]amino]carbonyl]pyrrolidylcarbonyl]amino]-3-pyridinepropanoic acid]: in experiment [1] (at 10^-5 M, read-out: Dog PRP % Inh.), the inhibition at 10 µM amounted to 30%.

As to `N=C(N)c1ccc(NC(=O)N2CCC(C(=O)NC(CC(=O)O)c3cccnc3)CC2)cc1` (stereo not drawn) [Example 6, β-[[N-[[[4-(aminoiminomethyl)phenyl]amino]carbonyl]4-piperidylcarbonyl]amino]-3-pyridinepropanoic acid], the inhibition at 1 µM in experiment [1] (at 10^-6 M, read-out: Dog PRP % Inh.) was found to be 19%.
